Data reported in patent publication US10760052B2, “Method of inhibiting tau phosphorylation” (priority 2012, dated 2020).

Key:
[1] = tested on: tau protein phosphorylated at S202, T231 and T181; experiment: Aβ42-induced tau phosphorylation in rat frontal cortical synaptosomes; type: cell-based
Description: FIG. 4 in four panels as FIGS. 4A-4D, illustrates that FLNA-binding compounds reduce tau phosphorylation at all three phosphorylation sites. […] The three phosphoepitopes of tau were detected in immunoprecipitates using specific antibodies. […] Immunoprecipitates were determined by Western blotting (FIGS. 4A-4C) and quantified by densitometry (FIG. 4D).
(§1) FIG. 42, also in two panels, FIGS. 42A and 42B, illustrates that FLNA-binding compounds reduce tau phosphorylation at all three phosphorylation sites using the compounds and concentrations of FIG. 41 using immunoprecipitation and Western blotting. […] The three phosphoepitopes of tau were detected in immunoprecipitates using specific antibodies.
as §1, with “44,” for “42,”, “FIG. 44A” for “FIGS. 42A”, “FIG. 44B,” for “42B,”, “43” for “41”, “antibodies. Aβ42 strongly promotes tau phosphorylation at all three sites.” for “antibodies.”
as §1, with “46,” for “42,”, “FIG. 46A” for “FIGS. 42A”, “FIG. 46B,” for “42B,”, “45” for “41”, “antibodies. Aβ42 strongly promotes tau phosphorylation at all three sites.” for “antibodies.”
The three primary phosphorylation sites on tau protein were examined for their phosphorylation levels compared to total tau protein content. Tau, phosphorylated at these three sites, is a constituent of NFTs. Consistent with effects on FLNA-α7nAChR association, and ERK2 activation, all of the FLNA-binding compounds assayed, with 10 minute pre-incubation, decreased Aβ42-induced phosphorylation of tau at all three sites (FIG. 4).

NFT and Aβ42 aggregates = experiment: Immunohistochemistry of NFT and Aβ42 aggregates in slice cultures; type: cell-based, rat; details: slice cultures incubated with Aβ42
Description: For immunohistochemistry, additional slices were removed and fixed in 4% paraformaldehyde in PBS at 4° C.
One section was immunostained with anti-NFT or -PHF.
Specimens were examined using a Nikon FXA microscope with a Princeton Instruments CCD camera and recorded digitally.
The correlations between the amount of NFT/PHF immunoreactivity and Aβ42-positive material accumulated within mature neurons were also determined.

NMDAR [2] = type: cell-based, human; details: AD and Aβ42-treated control brain slices
[3] = tested on: tau (pSer202, pThr231, pThr181); experiment: Tau phosphorylation in organotypic frontocortical slice cultures; type: cell-based, rat; details: C0105 0.1, 1, 10 nM; C0114 1, 10 nM; simultaneous with Aβ42
Description: On the day of study, medium was removed, the brain slices rinsed and incubated in 0.1% FBS-containing medium for 4 hours at 36° C. in 5% CO2.
The levels of phosphorylated tau (pSer202tau, pThr231tau and pThr181tau) as well as total tau precipitated (loading controls) are assessed by Western blotting using specific antibodies directed against each of the phosphoepitopes and the anti-tau, respectively.

TLR4-FLNA complex = target: T1, TLR4-FLNA complex (Mus musculus, UniProt Q8BTM8); experiment: ICV Aβ42 infusion mouse model: FLNA association with TLR4; type: in vivo; details: 10 mg/kg twice daily; prefrontal cortex and hippocampus
T1 construct: from tissue; host or cells: synaptosomes from prefrontal cortex and hippocampus of treated E129 mice
Description: . The anti-FLNA immunocomplexes were obtained by centrifugation, washed and dissociated using antigen elution buffer. […] The levels of FLNA-associated α7nAChRs and TLR4s were assessed by Western blotting and the blot stripped and re-probed for FLNA for immunoprecipitation/loading control.

insulin receptor (IR) [4] = experiment: IR activation and signaling (pY1150/1151 IRβ, IRS-1) in slice cultures; type: cell-based, rat; details: insulin stimulation
Description: IR activation and signaling was initiated by incubation of 6 slices that were further chopped horizontally into 100 μm (100 μm×200 μm×3 mm) with either KR (basal) or KR containing 1 nM insulin at 37° C. for 30 minutes. […] Ligand stimulation was terminated by the addition of 1 ml of ice-cold Ca^2+-free K-R containing mixture of protein phosphatase inhibitors, 0.5 mM EGTA and 0.1 mM EDTA. Brain slices were harvested by a brief centrifugation and were homogenized in 0.25 ml of ice-cold immunoprecipitation buffer. The homogenates were centrifuged at 1000×g for 5 minutes (4° C.) and the supernatant (post-mitochondrial fraction) was sonicated for 10 seconds on ice. […] The resultant lysates were then cleared by centrifugation at 50,000×g for 5 minutes and diluted with 0.75 ml of immunoprecipitation buffer. Protein concentrations were measured by Bradford method (Bio-Rad).
In these experiments, brain slice lysates (100 μg) were immunoprecipitated overnight (about 18 hours) at 4° C. with 2 μg of immobilized anti-IRβ onto covalently conjugated protein A-agarose beads (Pierce-ENDOGEN). […]

NMDAR [5] = experiment: Postmortem human frontal cortex: NMDAR signaling and association with PSD-95; type: cell-based; details: AD brain slices, 1 nM, one hour incubation
Description: NMDAR activation and signaling were initiated by incubation of approximately 10 mg of in vitro treated brain slices with either LMKR (basal) or LMKR containing 10 μM NMDA and 1 μM glycine at 37° C. for 30 minutes. […] Ligand stimulation was terminated by the addition of 1 ml of ice-cold Ca^2+-free K-R containing 0.5 mM EGTA and 0.1 mM EDTA.
Brain slices were harvested by a brief centrifugation and were homogenized in 0.25 ml of ice-cold immunoprecipitation buffer. The homogenates were centrifuged at 1000×g for 5 minutes (4° C.) and the supernatant (post-mitochondrial fraction) is sonicated for 10 seconds on ice. […] The resultant lysates are then cleared by centrifugation at 50,000×g for 5 minutes and diluted with 0.75 ml of immunoprecipitation buffer. Protein concentrations are measured by Bradford method (Bio-Rad).
To determine the NMDAR signaling and the NMDAR complexes association with PSD-95 [also known as Disks large homolog 4 (DLH4)], the levels of NMDAR subunits, PSD-95 and NMDAR-associated signaling molecules were measured in anti-NR1 immunoprecipitates.
In these studies, brain slice lysates (200 μg) were immunoprecipitated overnight (about 18 hours) at 4° C. with 2 μg of immobilized anti-NR1 onto covalently conjugated protein A-agarose beads (Pierce-ENDOGEN). […]

FLNA-TLR4 association = experiment: FLNA association with TLR4 in organotypic frontocortical slice cultures; type: cell-based, rat; details: 100 nM Aβ42, 16 hours, compound added simultaneously
Description: Tissue was harvested and solubilized, and a specific antibody against FLNA was used to immunoprecipitate FLNA and associated proteins. The FLNA immunoprecipitate was size-fractionated using SDS-PAGE, transferred and probed with specific antibodies directed against each of the following receptors: α7nAChR, TLR4, IR and MOR.
Rat brain slice organotypic culture methods were modified from those published previously. [Adamchik et al., Brain Res Brain Res Protoc 5:153-158 (2000).] FCX slices ([…]) were transferred to sterile, porous Millicell-CM inserts (0.4 μm). Each culture insert unit contained two brain slices and was placed into individual wells of a 12-well culture tray in 2 ml medium: 50% MEM with Earl's salts, 2 mM L-glutamine, 25% Earl's balanced salt solution, 6.5 g/l D-glucose, 20% fetal bovine serum (FBS), 5% horse serum, 25 mM HEPES buffer, pH 7.2, and […]. […]
The level of FLNA-associated α7nAChRs was determined using a co-immunoprecipitation/Western blotting method as described previously. […] The levels of FLNA-associated α7nAChR, TLR4, IR and MOR were assessed by Western blotting using specific antibodies directed against the respective proteins and the blot stripped and re-probed for FLNA for immunoprecipitation/loading control.

insulin receptor (IR) [6] = experiment: ICV Aβ42 infusion mouse model: IR signaling; type: in vivo; details: 10 mg/kg twice daily
Description: IR activation and signaling was initiated by incubation of tissue with either K-R (basal) or K—R containing 1 nM insulin at 37° C. for 30 minutes. […] Ligand stimulation was terminated by the addition of 1 ml of ice-cold Ca^2+-free K-R containing mixture of protein phosphatase inhibitors, 0.5 mM EGTA and 0.1 mM EDTA.
Tissues were briefly centrifuged and homogenized in 0.25 ml of ice-cold immunoprecipitation buffer. The homogenates were centrifuged at 1000×g for 5 minutes (4° C.) and the supernatant (post-mitochondrial fraction) was sonicated for 10 seconds on ice. […] The resultant lysates were then cleared by centrifugation at 50,000×g for 5 minutes and diluted with 0.75 ml of immunoprecipitation buffer. Protein concentrations were measured by Bradford method (Bio-Rad).
In these studies, brain tissue lysates (100 μg) were immunoprecipitated overnight (about 18 hours) at 4° C. with 2 μg of immobilized anti-IRβ onto covalently conjugated protein A-agarose beads (Pierce-ENDOGEN).
Anti-IRβ immunoprecipitates were incubated with 75 μl antigen elution buffer (Pierce-ENDOGEN) and 2% SDS for 2 minutes on ice, centrifuged to remove antibody-protein A-agarose complexes and neutralized immediately with 10 μl 1.5 M Tris buffer, pH 8.8 followed by addition of 65 μl 2× PAGE sample buffer and boiled for 5 minutes. […]

[7] = tested on: voltage-gated calcium channel-mediated Ca2+ influx; type: cell-based, human; details: postmortem AD tissue; 1 nM
[8] = tested on: voltage-gated Ca2+ channel mediated Ca2+ influx; type: cell-based, rat; details: slice cultures

T1 sequence (Q8BTM8 2-2647, one chain of several): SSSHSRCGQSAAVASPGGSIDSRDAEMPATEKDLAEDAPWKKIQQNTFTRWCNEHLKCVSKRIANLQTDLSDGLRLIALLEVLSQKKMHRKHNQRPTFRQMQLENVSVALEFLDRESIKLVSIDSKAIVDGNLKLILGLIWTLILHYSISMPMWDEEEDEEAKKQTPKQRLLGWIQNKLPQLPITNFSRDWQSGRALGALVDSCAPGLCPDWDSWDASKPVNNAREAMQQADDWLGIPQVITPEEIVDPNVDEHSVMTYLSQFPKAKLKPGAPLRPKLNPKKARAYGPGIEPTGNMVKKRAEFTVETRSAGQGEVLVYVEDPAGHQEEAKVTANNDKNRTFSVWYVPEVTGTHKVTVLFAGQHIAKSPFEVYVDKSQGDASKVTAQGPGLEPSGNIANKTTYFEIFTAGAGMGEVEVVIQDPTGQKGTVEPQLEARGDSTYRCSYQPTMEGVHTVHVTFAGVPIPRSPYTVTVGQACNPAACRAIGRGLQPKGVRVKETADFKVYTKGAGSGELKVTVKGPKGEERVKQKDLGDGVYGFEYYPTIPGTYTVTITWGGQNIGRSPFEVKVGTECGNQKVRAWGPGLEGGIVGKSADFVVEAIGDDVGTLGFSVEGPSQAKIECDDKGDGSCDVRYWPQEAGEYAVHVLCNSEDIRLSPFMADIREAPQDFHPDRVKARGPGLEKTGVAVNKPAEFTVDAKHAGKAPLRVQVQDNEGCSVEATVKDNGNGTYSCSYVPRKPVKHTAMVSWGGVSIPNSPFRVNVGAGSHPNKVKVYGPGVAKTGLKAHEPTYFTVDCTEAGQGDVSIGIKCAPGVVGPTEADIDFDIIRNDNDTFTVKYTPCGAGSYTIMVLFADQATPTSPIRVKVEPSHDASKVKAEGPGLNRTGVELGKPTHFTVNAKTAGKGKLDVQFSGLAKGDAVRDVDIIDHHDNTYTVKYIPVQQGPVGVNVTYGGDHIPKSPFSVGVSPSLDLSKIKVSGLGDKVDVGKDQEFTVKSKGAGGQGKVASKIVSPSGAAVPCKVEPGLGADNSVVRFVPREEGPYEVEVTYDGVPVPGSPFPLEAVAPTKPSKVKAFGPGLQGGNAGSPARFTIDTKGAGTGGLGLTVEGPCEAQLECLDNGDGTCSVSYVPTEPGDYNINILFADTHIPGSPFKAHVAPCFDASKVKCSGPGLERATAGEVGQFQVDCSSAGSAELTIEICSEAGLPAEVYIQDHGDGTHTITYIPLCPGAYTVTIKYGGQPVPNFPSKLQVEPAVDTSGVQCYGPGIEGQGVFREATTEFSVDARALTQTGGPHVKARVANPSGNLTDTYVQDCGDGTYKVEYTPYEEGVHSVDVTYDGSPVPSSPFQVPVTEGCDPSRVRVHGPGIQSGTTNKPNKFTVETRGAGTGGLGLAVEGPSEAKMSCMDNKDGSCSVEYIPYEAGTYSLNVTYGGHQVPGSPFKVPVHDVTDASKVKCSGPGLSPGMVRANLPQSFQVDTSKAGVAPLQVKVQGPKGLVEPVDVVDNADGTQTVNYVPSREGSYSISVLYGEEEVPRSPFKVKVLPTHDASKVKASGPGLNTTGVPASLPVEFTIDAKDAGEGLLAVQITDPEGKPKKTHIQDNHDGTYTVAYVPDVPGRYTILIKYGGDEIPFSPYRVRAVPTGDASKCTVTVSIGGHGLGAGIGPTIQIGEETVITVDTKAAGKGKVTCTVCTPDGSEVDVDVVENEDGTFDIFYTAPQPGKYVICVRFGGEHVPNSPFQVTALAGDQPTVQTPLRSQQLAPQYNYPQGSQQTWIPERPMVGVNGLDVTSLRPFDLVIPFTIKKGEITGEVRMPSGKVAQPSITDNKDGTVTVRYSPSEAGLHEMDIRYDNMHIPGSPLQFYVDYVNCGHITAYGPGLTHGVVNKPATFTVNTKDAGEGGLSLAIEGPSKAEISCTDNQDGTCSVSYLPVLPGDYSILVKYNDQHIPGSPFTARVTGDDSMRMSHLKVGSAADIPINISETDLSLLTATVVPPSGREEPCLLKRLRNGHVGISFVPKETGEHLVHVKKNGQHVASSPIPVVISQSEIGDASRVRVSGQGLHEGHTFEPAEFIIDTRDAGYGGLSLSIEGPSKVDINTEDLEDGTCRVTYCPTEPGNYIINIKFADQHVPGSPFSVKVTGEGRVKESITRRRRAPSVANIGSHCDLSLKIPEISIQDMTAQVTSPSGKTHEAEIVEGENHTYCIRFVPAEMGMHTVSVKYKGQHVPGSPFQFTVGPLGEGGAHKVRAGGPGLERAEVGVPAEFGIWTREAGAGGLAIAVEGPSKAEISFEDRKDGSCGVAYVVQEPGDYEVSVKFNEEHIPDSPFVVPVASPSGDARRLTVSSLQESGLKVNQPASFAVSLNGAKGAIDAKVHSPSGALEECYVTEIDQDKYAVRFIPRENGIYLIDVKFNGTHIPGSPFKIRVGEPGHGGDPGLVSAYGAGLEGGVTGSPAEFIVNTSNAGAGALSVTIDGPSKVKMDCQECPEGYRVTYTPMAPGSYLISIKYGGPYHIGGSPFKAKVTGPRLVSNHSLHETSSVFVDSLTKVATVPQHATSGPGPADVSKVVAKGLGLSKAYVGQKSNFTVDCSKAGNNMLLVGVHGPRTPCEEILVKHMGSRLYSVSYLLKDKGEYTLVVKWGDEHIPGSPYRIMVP

CN1CCC2(CC1)NCC(=O)N2Cc1ccccc1 [Compound C0105]
Aβ42-induced tau phosphorylation at S202, T231 and T181 ([1]; 1 or 10 nM compound, simultaneously or 10-minute pretreatment, Aβ42 0.1 μM): reduced this phosphorylation at both concentrations | Aβ42-induced phosphorylation of tau ([1]; simultaneous administration): reduced tau phosphorylation with simultaneous administration | Aβ42 aggregates immunostaining (NFT and Aβ42 aggregates): dramatically reduces | NFT immunostaining (pTau) (NFT and Aβ42 aggregates): dramatically reduces | Functioning of NMDAR (calcium influx after receptor stimulation) (NMDAR [2]): preserves functioning | Aβ42-induced tau phosphorylation [3]: reduced tau phosphorylation at all three phosphorylation sites | Aβ42-induced increase in FLNA association with TLR4 (TLR4-FLNA complex): reduced Aβ42-induced increases in FLNA associations with both α7nAChR and TLR4 | Aβ42-induced IR signaling impairments (IRS-1 association, pY1150/1151 IRβ) (insulin receptor (IR) [4]): normalized the signaling impairments | NMDAR signaling impairment (six measures) (NMDAR [5]): normalized all six measures | Aβ42-induced increase in FLNA-TLR4 association (FLNA-TLR4 association): reduced the increase in FLNA-TLR4 at 1 and 10 nM | IR signaling (IRβ phosphorylation, IRS-1 association) (insulin receptor (IR) [6]): restored | Deficit in depolarization-induced calcium influx [7]: attenuated the deficit | Aβ42-induced reduction of K+-evoked calcium influx [8]: completely reversed by 1 and 10 nM
